Patent US20230140983A1, “PYRIDAZINE DERIVATIVES FOR MODULATING NUCLEIC ACID SPLICING” (REMIX THERAPEUTICS INC., priority 2020, published 2023)
Like-named read-outs stand apart in the source and are kept apart here.

Tested on: HTT
Test: Splicing assay (RT-qPCR on cell lysates) monitoring HTT splice variants: AJ and CJ mRNA
Format: cell-based
Details: Table 7, concentration having 50% response
Protocol: Example 69: Exemplary Splicing Assay for Monitoring Expression Levels of Splice Variants
To set up 10 uL RT-qPCR reactions, cell lysates were transferred to 384-well qPCR plates containing the master mix according to the table below. The plates were sealed, gently vortexed, and spun down before the run. The volumes were adjusted accordingly in some instances where the reaction was carried in 20 uL. The table below summarizes the components of the RT-qPCR reactions:
The RT-qPCR reaction was performed using a QuantStudio (ThermoFisher) under the following fast cycling conditions. All samples and standards were analyzed at least in duplicate. In some instances, bulk room temperature (RT) step of 5-10 minutes was completed for all plates before proceeding with qPCR. The table below summarizes the PCR cycle:
The data analysis was performed by first determining the ΔCt vs the housekeeper gene. This ΔCt was then normalized against the DMSO control (ΔΔCt) and converted to RQ (relative quantification) using the 2^(−ΔΔCt) equation. The RQ were then converted to a percentage response by arbitrarily setting an assay window of 3.5 ΔCt for HTT-CJ and an assay window of 9 ΔCt for HTT-AJ. […] The percentage response was then fitted to the 4 parametric logistic equation to evaluate the concentration dependence of compound treatment. The increase in AJ mRNA is reported as AC50 (compound concentration having 50% response in AJ increase) while the decrease in CJ mRNA levels is reported as IC50 (compound concentration having 50% response in CJ decrease).

[1] = decrease in CJ mRNA, read-out: HTT CJ AC50
[2] = increase in AJ mRNA, read-out: HTT AJ AC50

| SMILES | AC50 [1] [µM] | AC50 [2] [µM] |
| --- | --- | --- |
| CC1C[C@@H](N(C)c2ccc(-c3ccc(-n4cccn4)c4cc[nH]c34)nn2)CCN1 (stereo in doubt) [Compound 111, N-methyl-N-[(2R,4S)-2-methylpiperidin-4-yl]-6-[4-(pyrazol-1-yl)-1H-indol-7-yl]pyridazin-3-amine] | > 5 | > 5 |
| CN(c1ccc(-c2ccc(-c3cn[nH]c3)c3cn[nH]c23)nn1)[C@@H]1C[C@H]2CC[C@@H](C1)N2 [Compound 104, (1R,3S,5S)—N-methyl-N-[6-[4-(1H-pyrazol-4-yl)-1H-indazol-7-yl]pyridazin-3-yl]-8-azabicyclo[3.2.1]octan-3-amine] |  | < 0.5 |
| CN(c1ccc(-c2ccc(-n3cccn3)c3cn[nH]c23)nn1)[C@@H]1C[C@H]2CC[C@@H](C1)N2 [Compound 105, (1R,3R,5S)—N-methyl-N-[6-[4-(pyrazol-1-yl)-1H-indazol-7-yl]pyridazin-3-yl]-8-azabicyclo[3.2.1]octan-3-amine] | < 0.5 | < 0.5 |
| C[C@H]1C[C@@H](N(C)c2ccc(-c3ccc(-c4cn[nH]c4)c4cc[nH]c34)nn2)CCN1 [Compound 108, N-methyl-N-[(2S,4S)-2-methylpiperidin-4-yl]-6-[4-(1H-pyrazol-4-yl)-1H-indol-7-yl]pyridazin-3-amine] | > 5 | > 5 |
| CN(c1ccc(-c2ccc(-c3cn[nH]c3)c3cc[nH]c23)nn1)[C@@H]1C[C@H]2CC[C@@H](C1)N2 [Compound 112, (1R,3S,5S)—N-methyl-N-[6-[4-(1H-pyrazol-4-yl)-1H-indol-7-yl]pyridazin-3-yl]-8-azabicyclo[3.2.1] octan-3-amine] | < 0.5 | 0.5 to 5 |
| CN(c1ccc(-c2ccc(-n3cccn3)c3cc[nH]c23)nn1)[C@@H]1C[C@H]2CC[C@@H](C1)N2 [Compound 113, (1R,3R,5S)—N-methyl-N-[6-[4-(pyrazol-1-yl)-1H-indol-7-yl]pyridazin-3-yl]-8-azabicyclo[3.2.1]octan-3-amine] | 0.5 to 5 | > 5 |
| C[C@@H]1C[C@H](N(C)c2ccc(-c3ccc(-c4cn[nH]c4)c4nn[nH]c34)nn2)CCN1 [Compound 115] |  | > 5 |
| C[C@@H]1C[C@H](N(C)c2ccc(-c3ccc(-n4cccn4)c4nn[nH]c34)nn2)CCN1 [Compound 117, N-methyl-N-[(2R,4R)-2-methylpiperidin-4-yl]-6-[7-(pyrazol-1-yl)-3H-1,2,3-benzotriazol-4-yl]pyridazin-3-amine] | > 5 | > 5 |
| CN(c1ccc(-c2ccc(-c3cn[nH]c3)c3nn[nH]c23)nn1)[C@@H]1C[C@H]2CC[C@@H](C1)N2 [Compound 118, (1R,3S,5S)—N-methyl-N-[6-[7-(1H-pyrazol-4-yl)-3H-1,2,3-benzotriazol-4-yl]pyridazin-3-yl]-8-azabicyclo[3.2.1]octan-3-amine] | 0.5 to 5 | 0.5 to 5 |
| CN(c1ccc(-c2ccc(-n3cccn3)c3nn[nH]c23)nn1)[C@@H]1C[C@H]2CC[C@@H](C1)N2 [Compound 119, (1R,3S,5S)—N-methyl-N-[6-[7-(pyrazol-1-yl)-3H-1,2,3-benzotriazol-4-yl]pyridazin-3-yl]-8-azabicyclo[3.2.1]octan-3-amine] | 0.5 to 5 | > 5 |
| C[C@@H]1C[C@H](N(C)c2ccc(-c3ccc(-c4cn[nH]c4)c4c3NC(=O)C4)nn2)CCN1 [Compound 121, 7-(6-[methyl[(2R,4R)-2-methylpiperidin-4-yl]amino]pyridazin-3-yl)-4-(1H-pyrazol-4-yl)-1,3-dihydroindol-2-one] |  | > 5 |
| CN(c1ccc(-c2ccc(-c3cn[nH]c3)c3ccsc23)nn1)C1CC(C)(C)NC(C)(C)C1 [Compound 131, N-methyl-6-[4-(1H-pyrazol-4-yl)-1-benzothiophen-7-yl]-N-(2,2,6,6-tetramethylpiperidin-4-yl)pyridazin-3-amine] | > 5 | > 5 |
